Assays:
CYPIR (Rice Flatsedge) = assay: Preemergence weed control under flooded paddy conditions; type: in vivo, Cyperus iria; settings: rated 3-4 weeks after treatment
How it was run: (§1)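 Herbicidal effect is scored visually on a 0-9 scale against an untreated control, three to four weeks after compounds are pipetted into the flood water (1.5 to 3 cm deep) over seeds planted in silt loam at 0.5 cm depth. Rates: about 0.0313 to 0.500 kg/ha.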

[1] = system: TRZAWR (Wheat, Winter, cv Riband); assay: Postemergence herbicidal evaluation; type: in vivo, Triticum aestivum; settings: postemergence
How it was run: (§2)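 First, seedlings were raised for around two weeks. Next, test material in 50/50 acetone/water containing 0.5% TWEEN 20 was sprayed through a nozzle at 40 psi, equivalent to about 0.0156–0.500 kg/ha. Finally, after 4–5 weeks in the greenhouse, plants were rated 0–9.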

GALAP (Galium) = assay: Postemergence herbicidal evaluation; type: in vivo, Galium aparine; settings: postemergence
How it was run: as §2

SETVI (Foxtail, Green) [2] = assay: Preemergence herbicidal evaluation; type: in vivo, Setaria viridis; settings: rated 4-5 weeks after treatment, rating scale 0-9
How it was run: (§3)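 Visual 0-9 rating vs control (stand, vigor, malformation, size, chlorosis, overall appearance), scored 4-5 wk after spraying. Seeded soil cups were treated preemergence with compound in aqueous acetone, ~0.0156-0.500 kg/ha equivalent.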

[3] = system: IPOHE (Morningglory, Ivyleaf); assay: Postemergence herbicidal evaluation; type: in vivo, Ipomoea hederacea; settings: postemergence
How it was run: as §2

ECHCG (Barnyardgrass) = assay: Preemergence herbicidal evaluation; type: in vivo, Echinochloa crus-galli; settings: rated 4-5 weeks after treatment, rating scale 0-9
How it was run: as §3

[4] = system: ECHORC (Watergrass (Calif.)); assay: Preemergence weed control under flooded paddy conditions; type: in vivo, Echinochloa oryzoides; settings: rated 3-4 weeks after treatment
How it was run: as §1

[5] = system: IPOHE (Morningglory, Ivyleaf); assay: Preemergence herbicidal evaluation; type: in vivo, Ipomoea hederacea; settings: rated 4-5 weeks after treatment, rating scale 0-9
How it was run: as §3

SETVI (Foxtail, Green) [6] = assay: Postemergence herbicidal evaluation; type: in vivo, Setaria viridis; settings: postemergence
How it was run: as §2

ABUTH (Velvetleaf) = assay: Preemergence herbicidal evaluation; type: in vivo, Abutilon theophrasti; settings: rated 4-5 weeks after treatment, rating scale 0-9
How it was run: as §3

MOOVA (Monochoria) = assay: Preemergence weed control under flooded paddy conditions; type: in vivo, Monochoria vaginalis; settings: rated 3-4 weeks after treatment
How it was run: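 Greenhouse paddy assay. Acetone/water (50/50 v/v) solutions dosed into flood water, equivalent to about 0.0313 to 0.500 kg/ha active ingredient, over seeds planted 0.5 cm deep in silt loam. Score: 0-9 visual, based on stand, vigor, malformation, size and chlorosis, 3 to 4 weeks after treatment.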

ZEAMX (Corn, Field) = assay: Preemergence herbicidal evaluation; type: in vivo, Zea mays; settings: rated 4-5 weeks after treatment, rating scale 0-9
How it was run: as §3

## Cn1c(C(F)(F)F)cc(=O)n(-c2cc(N=C3SCC(=O)N3Cc3ccc(Cl)c(Cl)c3)c(Cl)cc2F)c1=O [Compound 144, 3-{4-Chloro-5-{[3-(3,4-dichlorobenzyl)-4-oxo-2-thiazolidinylidene]amino}-2-fluorophenyl}-1-methyl-6-(trifluoromethyl)-2,4(1H,3H)-pyrimidinedione]
CYPIR (Rice Flatsedge); 0.0313 kg/ha
  herbicidal effect rating, CYPIR: 3.0
CYPIR (Rice Flatsedge); 0.0625 kg/ha
  herbicidal effect rating, CYPIR: 3.0
CYPIR (Rice Flatsedge); 0.1250 kg/ha
  herbicidal effect rating, CYPIR: 9.0
CYPIR (Rice Flatsedge); 0.2500 kg/ha
  herbicidal effect rating, CYPIR: 9.0
[1]; rate 0.0156 kg/ha
  Herbicidal rating TRZAWR: 3.5
[1]; rate 0.0313 kg/ha
  Herbicidal rating TRZAWR: 3.5
[1]; rate 0.0625 kg/ha
  Herbicidal rating TRZAWR: 4.0
GALAP (Galium); rate 0.0156 kg/ha
  Herbicidal rating GALAP: 3.0
GALAP (Galium); rate 0.0313 kg/ha
  Herbicidal rating GALAP: 3.0
GALAP (Galium); rate 0.0625 kg/ha
  Herbicidal rating GALAP: 4.0
SETVI (Foxtail, Green) [2]; rate 0.0156 kg/ha
  Preemergence herbicidal rating SETVI: 0.0
SETVI (Foxtail, Green) [2]; rate 0.0313 kg/ha
  Preemergence herbicidal rating SETVI: 0.0
SETVI (Foxtail, Green) [2]; rate 0.0625 kg/ha
  Preemergence herbicidal rating SETVI: 2.0
SETVI (Foxtail, Green) [2]; rate 0.1250 kg/ha
  Preemergence herbicidal rating SETVI: 9.0
SETVI (Foxtail, Green) [2]; rate 0.2500 kg/ha
  Preemergence herbicidal rating SETVI: 9.0
[3]; rate 0.0156 kg/ha
  Herbicidal rating IPOHE: 9.0
[3]; rate 0.0313 kg/ha
  Herbicidal rating IPOHE: 9.0
[3]; rate 0.0625 kg/ha
  Herbicidal rating IPOHE: 9.0
ECHCG (Barnyardgrass); rate 0.0156 kg/ha
  Preemergence herbicidal rating ECHCG: 0.0
ECHCG (Barnyardgrass); rate 0.0313 kg/ha
  Preemergence herbicidal rating ECHCG: 0.0
ECHCG (Barnyardgrass); rate 0.0625 kg/ha
  Preemergence herbicidal rating ECHCG: 0.0
ECHCG (Barnyardgrass); rate 0.1250 kg/ha
  Preemergence herbicidal rating ECHCG: 0.0
ECHCG (Barnyardgrass); rate 0.2500 kg/ha
  Preemergence herbicidal rating ECHCG: 1.0
[4]; 0.0313 kg/ha
  herbicidal effect rating, ECHORC: 0.0
[4]; 0.0625 kg/ha
  herbicidal effect rating, ECHORC: 0.0
[4]; 0.1250 kg/ha
  herbicidal effect rating, ECHORC: 1.0
[4]; 0.2500 kg/ha
  herbicidal effect rating, ECHORC: 3.0
[5]; rate 0.0156 kg/ha
  Preemergence herbicidal rating IPOHE: 0.0
[5]; rate 0.0313 kg/ha
  Preemergence herbicidal rating IPOHE: 0.0
[5]; rate 0.0625 kg/ha
  Preemergence herbicidal rating IPOHE: 0.0
[5]; rate 0.1250 kg/ha
  Preemergence herbicidal rating IPOHE: 0.0
[5]; rate 0.2500 kg/ha
  Preemergence herbicidal rating IPOHE: 1.0
SETVI (Foxtail, Green) [6]; rate 0.0156 kg/ha
  Herbicidal rating SETVI: 3.0
SETVI (Foxtail, Green) [6]; rate 0.0313 kg/ha
  Herbicidal rating SETVI: 3.0
SETVI (Foxtail, Green) [6]; rate 0.0625 kg/ha
  Herbicidal rating SETVI: 6.0
ABUTH (Velvetleaf); rate 0.0156 kg/ha
  Preemergence herbicidal rating ABUTH: 0.0
ABUTH (Velvetleaf); rate 0.0313 kg/ha
  Preemergence herbicidal rating ABUTH: 0.0
ABUTH (Velvetleaf); rate 0.0625 kg/ha
  Preemergence herbicidal rating ABUTH: 0.0
ABUTH (Velvetleaf); rate 0.1250 kg/ha
  Preemergence herbicidal rating ABUTH: 9.0
ABUTH (Velvetleaf); rate 0.2500 kg/ha
  Preemergence herbicidal rating ABUTH: 9.0
MOOVA (Monochoria); 0.0313 kg/ha
  herbicidal effect rating, MOOVA: 6.0
MOOVA (Monochoria); 0.0625 kg/ha
  herbicidal effect rating, MOOVA: 9.0
MOOVA (Monochoria); 0.1250 kg/ha
  herbicidal effect rating, MOOVA: 9.0
MOOVA (Monochoria); 0.2500 kg/ha
  herbicidal effect rating, MOOVA: 9.0
ZEAMX (Corn, Field); rate 0.0156 kg/ha
  Preemergence herbicidal rating ZEAMX: 0.0
ZEAMX (Corn, Field); rate 0.0313 kg/ha
  Preemergence herbicidal rating ZEAMX: 0.0
ZEAMX (Corn, Field); rate 0.0625 kg/ha
  Preemergence herbicidal rating ZEAMX: 0.0
ZEAMX (Corn, Field); rate 0.1250 kg/ha
  Preemergence herbicidal rating ZEAMX: 0.0
ZEAMX (Corn, Field); rate 0.2500 kg/ha
  Preemergence herbicidal rating ZEAMX: 0.0

From patent US20020137929A1, “1 - (3-heterocyclylphenyl) isothiourea, -isourea, -guanidine and -amidine herbicidal agents” (Intellectual Property Department, BASF Aktiengesellschaft, priority 1998, published 2002)
